Experimental data reported in patent US12448389B2, “BRM targeting compounds and associated methods of use” (Prelude Therapeutics Incorporated, priority 2020, dated 2025).

What was measured:
SMARCA2-HiBiT = target: T1, SMARCA2-HiBiT (Homo sapiens, UniProt P51531); test: SMARCA2 HiBiT degradation assay in HeLa cells; format: cell-based; conditions: 18 hours incubation; for DC50: read-out: HeLa_HiBit-SM2 DC50; for Dmax: HeLa, read-out: HeLa-HiBit-SM2 Dmax (%)
T1 construct: SMARCA2-HiBiT knock-in Hela monoclonal cell (CS302366); host or cells: HeLa monoclonal knock-in line (CRISPR HiBiT knock-in at the endogenous locus, heterozygous)
T1 sequence (P51531 whole entry): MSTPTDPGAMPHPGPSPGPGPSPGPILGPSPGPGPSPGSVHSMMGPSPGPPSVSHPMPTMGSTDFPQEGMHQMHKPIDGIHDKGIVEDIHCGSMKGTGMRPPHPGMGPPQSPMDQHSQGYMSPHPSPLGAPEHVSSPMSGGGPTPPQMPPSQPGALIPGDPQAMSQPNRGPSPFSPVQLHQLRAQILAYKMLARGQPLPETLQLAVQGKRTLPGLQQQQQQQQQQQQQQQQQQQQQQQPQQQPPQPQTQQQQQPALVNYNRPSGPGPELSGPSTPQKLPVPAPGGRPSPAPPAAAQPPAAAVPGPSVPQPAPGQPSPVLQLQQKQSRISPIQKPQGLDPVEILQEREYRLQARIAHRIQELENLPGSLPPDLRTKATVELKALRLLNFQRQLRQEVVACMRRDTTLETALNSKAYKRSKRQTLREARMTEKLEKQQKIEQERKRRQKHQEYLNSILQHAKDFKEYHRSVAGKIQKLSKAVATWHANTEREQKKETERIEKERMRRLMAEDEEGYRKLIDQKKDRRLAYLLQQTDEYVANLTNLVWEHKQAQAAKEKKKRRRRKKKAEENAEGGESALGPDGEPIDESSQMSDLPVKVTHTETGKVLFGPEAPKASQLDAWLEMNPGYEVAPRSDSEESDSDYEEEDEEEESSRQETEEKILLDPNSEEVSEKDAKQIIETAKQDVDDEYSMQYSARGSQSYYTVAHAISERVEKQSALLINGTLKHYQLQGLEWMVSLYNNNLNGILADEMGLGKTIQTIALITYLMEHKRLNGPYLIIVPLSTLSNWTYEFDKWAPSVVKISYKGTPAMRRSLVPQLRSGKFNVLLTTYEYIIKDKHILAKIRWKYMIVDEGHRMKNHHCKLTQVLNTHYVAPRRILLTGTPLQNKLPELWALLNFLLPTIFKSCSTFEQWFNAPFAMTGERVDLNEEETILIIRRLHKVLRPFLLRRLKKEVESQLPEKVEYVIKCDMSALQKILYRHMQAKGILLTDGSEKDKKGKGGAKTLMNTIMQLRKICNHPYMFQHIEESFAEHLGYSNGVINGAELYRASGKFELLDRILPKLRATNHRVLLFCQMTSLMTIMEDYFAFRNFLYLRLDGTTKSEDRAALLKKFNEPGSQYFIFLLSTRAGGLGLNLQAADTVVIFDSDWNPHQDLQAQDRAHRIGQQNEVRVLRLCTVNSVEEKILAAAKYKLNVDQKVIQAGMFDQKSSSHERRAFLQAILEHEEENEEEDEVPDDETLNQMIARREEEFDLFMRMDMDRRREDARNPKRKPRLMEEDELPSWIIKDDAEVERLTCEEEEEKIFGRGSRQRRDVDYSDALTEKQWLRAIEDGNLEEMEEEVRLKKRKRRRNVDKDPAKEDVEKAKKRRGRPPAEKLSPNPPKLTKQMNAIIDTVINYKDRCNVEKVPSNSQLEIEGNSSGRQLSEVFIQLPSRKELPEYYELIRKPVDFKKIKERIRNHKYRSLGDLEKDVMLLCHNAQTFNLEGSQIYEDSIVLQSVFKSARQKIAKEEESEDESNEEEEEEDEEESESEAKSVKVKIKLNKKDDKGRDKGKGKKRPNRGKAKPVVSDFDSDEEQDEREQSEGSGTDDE
Experimental: (§1) HiBiT peptide knock-in of SMARCA2 in LgBiT expressing HEK293T cells was performed by CRISPR-mediated tagging system as described Promega. The homozygous HiBiT knock-in on c-terminus SMARCA2 was confirmed by sanger sequence. SMARCA2-HiBiT knock-in Hela monoclonal cell (CS302366) and SMARCA4-HiBiT knock-in Hela monoclonal cell (CS3023226) were purchased from Promega. The heterozygous HiBiT-knock-in was confirmed by sanger sequence in both SMARCA2-HiBiT and SMARCA4-HiBiT monoclonal cells.
(§2) SMARCA2 HiBiT and SMARCA4 HiBiT Degradation Assay in HeLa Cells
(§3) Dispense 10 ul aliquot of prepared Hela-SMARCA2-HiBiT or Hela-SMARCA4-HiBiT cells (1:1 ratio of cells:Trypan Blue (#1450013, Bio-Rad)) onto cell counting slide (#145-0011, Bio-Rad) and obtain cell density and cell viability using cell counter (TC20, Bio-Rad). Remove appropriate volume of resuspended cells from culture flask to accommodate 2500 cells/well @20 μL/well. Transfer Hela-HiBiT cells to 50 mL conical (#430290, Corning). Spin down at 1000 rpm for 5 min using tabletop centrifuge (SPINCHRON 15, Beckman). Discard supernatant and resuspend cell pellet in modified EMEM (#30-2003, ATCC) cell culture media containing 10% FBS (F2422-500ML, Sigma), and 1×Penicillin/Streptomycin (200 g/L) (30-002-CI, Corning) to a cell density of 125,000 cells/mL. Dispense 20 μL of resuspended Hela-HiBit cells per well in 384-well TC treated plate (#12-565-343, Thermo Scientific) using standard cassette (#50950372, Thermo Scientific) on Multidrop Combi (#5840310, Thermo Scientific) inside laminar flow cabinet. Dispense test compounds onto plates using digital liquid dispenser (D300E, Tecan). Incubate plates in humidified tissue culture incubator @37° C. for 18 hours. Add 20 μL of prepared Nano-Glo® HiBiT Lytic detection buffer (N3050, Promega) to each well of 384-well plate using small tube cassette (#24073295, Thermo Scientific) on Multidrop Combi, incubate @RT for 30-60 min. Read plates on microplate reader (Envision 2105, PerkinElmer) using 384 well Ultra-Sensitive luminescence mode. Raw data files and compound information reports are swept into centralized data lake and deconvoluted using automated scripts designed by TetraScience, Inc. Data analysis, curve-fitting and reporting done in Dotmatics Informatics Suite using Screening Ultra module.

SMARCA4-HiBiT = target: T2, SMARCA4-HiBiT (Homo sapiens, UniProt P51532); test: SMARCA4 HiBiT degradation assay in HeLa cells; format: cell-based; conditions: 18 hours incubation; for DC50: read-out: HeLa-HiBit-SM4 DC50; for Dmax: HeLa, read-out: HeLa-HiBit-SM4 Dmax (%)
T2 construct: SMARCA4-HiBiT knock-in Hela monoclonal cell (CS3023226); host or cells: HeLa monoclonal knock-in line (CRISPR HiBiT knock-in at the endogenous locus, heterozygous)
T2 sequence (P51532 whole entry): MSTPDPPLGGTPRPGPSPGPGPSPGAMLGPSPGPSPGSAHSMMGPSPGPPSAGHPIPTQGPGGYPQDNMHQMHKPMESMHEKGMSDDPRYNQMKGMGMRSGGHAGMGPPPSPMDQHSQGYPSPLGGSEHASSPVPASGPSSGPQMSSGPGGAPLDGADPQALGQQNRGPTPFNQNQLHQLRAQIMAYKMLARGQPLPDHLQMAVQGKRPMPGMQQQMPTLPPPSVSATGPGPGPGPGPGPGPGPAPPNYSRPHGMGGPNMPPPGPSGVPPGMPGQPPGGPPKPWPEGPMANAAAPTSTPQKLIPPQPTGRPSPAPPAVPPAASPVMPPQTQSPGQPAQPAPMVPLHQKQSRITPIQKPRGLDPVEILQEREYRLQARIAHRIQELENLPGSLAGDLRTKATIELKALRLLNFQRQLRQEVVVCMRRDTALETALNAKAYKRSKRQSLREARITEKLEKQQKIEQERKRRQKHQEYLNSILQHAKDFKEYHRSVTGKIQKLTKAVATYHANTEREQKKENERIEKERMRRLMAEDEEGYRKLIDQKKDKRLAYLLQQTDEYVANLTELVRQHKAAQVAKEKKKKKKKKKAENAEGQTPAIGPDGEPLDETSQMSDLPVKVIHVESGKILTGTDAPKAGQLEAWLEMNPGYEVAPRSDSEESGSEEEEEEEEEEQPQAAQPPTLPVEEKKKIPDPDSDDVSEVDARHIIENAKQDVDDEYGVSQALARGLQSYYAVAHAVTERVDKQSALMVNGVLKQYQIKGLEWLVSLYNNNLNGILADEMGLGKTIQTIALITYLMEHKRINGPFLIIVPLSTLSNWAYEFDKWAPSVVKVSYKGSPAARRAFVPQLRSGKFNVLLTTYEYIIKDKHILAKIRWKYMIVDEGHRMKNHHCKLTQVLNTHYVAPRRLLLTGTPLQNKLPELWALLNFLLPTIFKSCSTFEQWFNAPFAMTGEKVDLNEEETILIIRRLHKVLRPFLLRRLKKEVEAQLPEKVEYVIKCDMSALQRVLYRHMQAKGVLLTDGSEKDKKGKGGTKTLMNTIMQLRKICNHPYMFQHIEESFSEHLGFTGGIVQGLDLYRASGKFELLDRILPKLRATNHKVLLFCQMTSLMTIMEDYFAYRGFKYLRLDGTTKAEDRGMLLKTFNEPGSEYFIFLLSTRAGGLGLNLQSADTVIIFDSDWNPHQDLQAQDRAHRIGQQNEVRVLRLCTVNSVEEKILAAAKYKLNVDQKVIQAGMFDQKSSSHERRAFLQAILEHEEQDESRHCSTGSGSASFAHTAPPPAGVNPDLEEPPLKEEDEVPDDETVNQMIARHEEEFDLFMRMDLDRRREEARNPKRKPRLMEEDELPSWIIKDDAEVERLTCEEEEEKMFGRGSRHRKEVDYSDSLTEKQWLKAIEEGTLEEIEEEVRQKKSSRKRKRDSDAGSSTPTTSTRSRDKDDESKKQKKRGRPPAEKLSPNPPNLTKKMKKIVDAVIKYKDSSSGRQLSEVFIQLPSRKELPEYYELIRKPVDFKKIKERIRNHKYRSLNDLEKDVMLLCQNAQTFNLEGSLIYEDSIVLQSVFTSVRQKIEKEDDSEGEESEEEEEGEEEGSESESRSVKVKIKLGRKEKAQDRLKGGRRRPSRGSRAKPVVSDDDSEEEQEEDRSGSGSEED
Experimental: as §1, §2, §3

| DC50 (SMARCA2-HiBiT) [nM] | Dmax (SMARCA2-HiBiT) [%] | DC50 (SMARCA4-HiBiT) [nM] | Dmax (SMARCA4-HiBiT) [%] | SMILES |
| --- | --- | --- | --- | --- |
| < 10 | > 85 | < 10 | > 85 | O=C1CCC(N2Cc3cc(CCN4CCC(N5CCC(N6CCN7c8cc(-c9ccccc9O)nnc8NC[C@H]7C6)CC5)CC4)ccc3C2=O)C(=O)N1 (stereo partly drawn) [Example 62, 3-(5-(2-(4-((S)-2-(2-hydroxyphenyl)-5,6,6a,7,9,10-hexahydro-8H-pyrazino[1′,2′:4,5]pyrazino[2,3-c]pyridazin-8-yl)-[1,4′-bipiperidin]-1′-yl)ethyl)-1-oxoisoindolin-2-yl)piperidine-2,6-dione] |
| < 10 | > 85 | < 10 | 75 to 85 | O=C1CCC(N2Cc3cc(CN4CCC(CCc5cnc(N6CCN7c8cc(-c9ccccc9O)nnc8NC[C@H]7C6)nc5)CC4)ccc3C2=O)C(=O)N1 (stereo partly drawn) [Example 64, 3-(5-((4-(2-(2-((S)-2-(2-hydroxyphenyl)-5,6,6a,7,9,10-hexahydro-8H-pyrazino[1′,2′:4,5]pyrazino[2,3-c]pyridazin-8-yl)pyrimidin-5-yl)ethyl)piperidin-1-yl)methyl)-1-oxoisoindolin-2-yl)piperidine-2,6-dione] |
| < 10 | > 85 | < 10 | > 85 | CC1CC(CN2CCC(CN3CCN4c5cc(-c6ccccc6O)nnc5NC[C@H]4C3)CC2)CCN1c1ccc2c(c1)C(=O)N(C1CCC(=O)NC1=O)C2=O (stereo partly drawn) [Example 148, 2-(2,6-dioxopiperidin-3-yl)-5-(4-((4-(((S)-2-(2-hydroxyphenyl)-5,6,6a,7,9,10-hexahydro-8H-pyrazino[1′,2′:4,5]pyrazino[2,3-c]pyridazin-8-yl)methyl)piperidin-1-yl)methyl)-2-methylpiperidin-1-yl)isoindoline-1,3-dione] |
| < 10 | 75 to 85 | < 10 | 75 to 85 | O=C1CCC(N2C(=O)c3ccc(N4CCC(CNC5CCN(C(=O)N6CCN7c8cc(-c9ccccc9O)nnc8NC[C@H]7C6)CC5)CC4)cc3C2=O)C(=O)N1 (stereo partly drawn) [Example 140, 2-(2,6-dioxopiperidin-3-yl)-5-(4-(((l-((S)-2-(2-hydroxyphenyl)-6,6a,7,8,9,10-hexahydro-5H-pyrazino[1′,2′:4,5]pyrazino[2,3-c]pyridazine-8-carbonyl)piperidin-4-yl)amino)methyl)piperidin-1-yl)isoindoline-1,3-dione] |
| < 10 | 75 to 85 | 10 to 100 | 50 to 75 | CC1(CN2C[C@@H]3[C@@H](CN4CCN5c6cc(-c7ccccc7O)nnc6NC[C@H]5C4)[C@@H]3C2)CCN(c2ccc3c(c2)C(=O)N(C2CCC(=O)NC2=O)C3=O)C1 (stereo partly drawn) [Example 151, 2-(2,6-dioxopiperidin-3-yl)-5-(3-(((1R,5S,6r)-6-(((S)-2-(2-hydroxyphenyl)-5,6,6a,7,9,10-hexahydro-8H-pyrazino[1′,2′:4,5]pyrazino[2,3-c]pyridazin-8-yl)methyl)-3-azabicyclo[3.1.0]hexan-3-yl)methyl)-3-methylpyrrolidin-1-yl)isoindoline-1,3-dione] |
| < 10 | > 85 | < 10 | > 85 | CC(C)(C)C(=O)OCN1C(=O)CCC(N2C(=O)c3ccc(N4CCC(CN5CCC(CN6CCN7c8cc(-c9ccccc9O)nnc8NC[C@H]7C6)CC5)CC4)cc3C2=O)C1=O (stereo partly drawn) [Example 34, (3-(5-(4-((4-(((S)-2-(2-hydroxyphenyl)-5,6,6a,7,9,10-hexahydro-8H-pyrazino [1′,2′:4,5]pyrazino[2,3-c]pyridazin-8-yl)methyl)piperidin-1-yl)methyl)piperidin-1-yl)-1,3-dioxoisoindolin-2-yl)-2,6-dioxopiperidin-1-yl)methyl pivalate] |
| < 10 | > 85 | < 10 | > 85 | O=C1CCC(N2Cc3ccc(N4CCC(CN5C[C@@H]6[C@H](C5)[C@H]6CN5CCN6c7cc(-c8ccccc8O)nnc7NC[C@H]6C5)CC4)cc3C2=O)C(=O)N1 (stereo partly drawn) [Example 232, 3-(6-(4-(((1R,5S,6r)-6-(((S)-2-(2-hydroxyphenyl)-5,6,6a,7,9,10-hexahydro-8H-pyrazino[1′,2′:4,5]pyrazino[2,3-c]pyridazin-8-yl)methyl)-3-azabicyclo[3.1.0]hexan-3-yl)methyl)piperidin-1-yl)-1-oxoisoindolin-2-yl)piperidine-2,6-dione] |
| < 10 | 75 to 85 | < 10 | 75 to 85 | O=C1CCC(N2C(=O)c3ccc(N4CCN(C(=O)OCCN5CCC(N6CCN7c8cc(-c9ccccc9O)nnc8NC[C@H]7C6)CC5)CC4)cc3C2=O)C(=O)N1 (stereo partly drawn) [Example 223, 2-(4-((S)-2-(2-hydroxyphenyl)-5,6,6a,7,9,10-hexahydro-8H-pyrazino[1′,2′:4,5]pyrazino[2,3-c]pyridazin-8-yl)piperidin-1-yl)ethyl 4-(2-(2,6-dioxopiperidin-3-yl)-1,3-dioxoisoindolin-5-yl)piperazine-1-carboxylate] |
| < 10 | > 85 | < 10 | > 85 | O=C1CCC(N2C(=O)c3ccc(N4CCC(N[C@H]5C[C@H](CN6CCN7c8cc(-c9ccccc9O)nnc8NC[C@H]7C6)C5)CC4)cc3C2=O)C(=O)N1 (stereo partly drawn) [Example 77, 2-(2,6-dioxopiperidin-3-yl)-5-(4-(((1S,3r)-3-(((S)-2-(2-hydroxyphenyl)-5,6,6a,7,9,10-hexahydro-8H-pyrazino[1′,2′:4,5]pyrazino[2,3-c]pyridazin-8-yl)methyl)cyclobutyl)amino)piperidin-1-yl)isoindoline-1,3-dione] |
| < 10 | 75 to 85 | 10 to 100 | 75 to 85 | O=C1CCC(N2Cc3ccc(N4CCC(CN5CCN(C(=O)N6CCN7c8cc(-c9ccccc9O)nnc8NC[C@H]7C6)C(C(F)(F)F)C5)CC4)cc3C2=O)C(=O)N1 (stereo partly drawn) [Example 100, 3-(6-(4-((4-((S)-2-(2-hydroxyphenyl)-6,6a,7,8,9,10-hexahydro-5H-pyrazino[1′,2′:4,5]pyrazino[2,3-c]pyridazine-8-carbonyl)-3-(trifluoromethyl)piperazin-1-yl)methyl)piperidin-1-yl)-1-oxoisoindolin-2-yl)piperidine-2,6-dione] |
| < 10 | > 85 | < 10 | > 85 | O=C1CCC(N2Cc3cc(N4CCC(CN5CCC(CN6CCN7c8cc(-c9ccccc9O)nnc8NC[C@H]7C6)CC5)CC4)ccc3C2=O)C(=O)N1 (stereo partly drawn) [Example 231, 3-(5-(4-((4-(((S)-2-(2-hydroxyphenyl)-5,6,6a,7,9,10-hexahydro-8H-pyrazino[1′,2′:4,5]pyrazino[2,3-c]pyridazin-8-yl)methyl)piperidin-1-yl)methyl)piperidin-1-yl)-1-oxoisoindolin-2-yl)piperidine-2,6-dione] |
| < 10 | > 85 | < 10 | > 85 | O=C1CCC(N2Cc3cc(C4CCN(C5CCN(CCN6CCN7c8cc(-c9ccccc9O)nnc8NC[C@H]7C6)CC5)CC4)ccc3C2=O)C(=O)N1 (stereo partly drawn) [Example 212, 3-(5-(1′-(2-((S)-2-(2-hydroxyphenyl)-5,6,6a,7,9,10-hexahydro-8H-pyrazino[1′,2′:4,5]pyrazino[2,3-c]pyridazin-8-yl)ethyl)-[1,4′-bipiperidin]-4-yl)-1-oxoisoindolin-2-yl)piperidine-2,6-dione] |

| SMILES | DC50 (SMARCA2-HiBiT) [nM] | Dmax (SMARCA2-HiBiT) [%] | DC50 (SMARCA4-HiBiT) [nM] | Dmax (SMARCA4-HiBiT) [%] |
| --- | --- | --- | --- | --- |
| O=C1CCC(N2C(=O)c3ccc(N4[C@@H]5CC[C@H]4CC(CN4CCC(CN6CCN7c8cc(-c9ccccc9O)nnc8NC[C@H]7C6)CC4)C5)cc3C2=O)C(=O)N1 (stereo partly drawn) [Example 180, 2-(2,6-dioxopiperidin-3-yl)-5-[(1S,5R)-3-[[4-[[(10S)-4-(2-hydroxyphenyl)-1,5,6,8,12-pentazatricyclo[8.4.0.02,7]tetradeca-2,4,6-trien-12-yl]methyl]piperidin-1-yl]methyl]-8-azabicyclo[3.2.1]octan-8-yl]isoindole-1,3-dione] | < 10 | 75 to 85 | < 10 | 75 to 85 |
